Test results published in publication PMC11856108, “Capsaicin (But Not Other Vanillins) Enhances Estrogen Binding to Its Receptor: Implications for Power Sports and Cancers” (Life, 2025).
“Also recorded” adds a separate entry of the source. Where two headings read alike, the source gives them in different places.

Assays:
[1] = set-up: method as in PMID 26247812; conditions: DPPC mem-brane model; cited from earlier work
[2] = target: insulin receptor (IR) (Homo sapiens, UniProt P06213); experiment: Binding to the insulin receptor by ultraviolet spectroscopy; conditions: UV spectroscopy
Experimental: UV spectroscopy in a crystal plate was used to investigate whether CAP has specificity for estrogen alone or whether it can bind to other naturally occurring hormones. To start, CAP was dissolved in a 1:1 solution of water to ethanol at 1 mg/mL ( 3.27×10^−3 M ) and then diluted by thirds eight times. Next, the hormones were dissolved in a 1:1 solution of water to ethanol at a 1/100 dilution. An amount of 50 μL of each CAP dilution was added to 3 wells of a crystal plate, with one well serving as the control, with another 50 μL of 1:1 water to ethanol added, and the other two serving as experimental duplicates, with 50 μL of the prepared hormone solution added. Then, two additional wells were prepared to serve as controls: one containing 100 μL of 1:1 water to ethanol and the other containing 50 μL of prepared hormone solution and 50 μL of 1:1 water to ethanol. Finally, the plate was incubated for 1 h and read in a Spectramax UV-VIS scanning spectrophotometer, spanning wavelengths from 190 to 400 nm. Data analysis involved the subtraction of observed absorbance values from expected absorbance values generated from the control wells ([CAP + 1:1 solution] + [hormone + 1:1 solution] − [1:1 solution]) and plotting them as a function of CAP concentration. Because the solvent (1:1 solution of water–ethanol) was used as a control and subtracted from all wells, the resulting data reflected only the absorbances of the solute compounds. Since each compound has a different lambda maximal absorbance, analysis of the resulting data required finding one common wavelength at which the additions and subtractions of the spectra could be carried out and at which the absorbance of each compound was maximized.
(§1) [17, 19, 20, 21, 22, 23]. […] Because CAP binds to INS, it was possible that it might antagonize INS binding to its receptor. […] Two types of ultraviolet spectroscopy experiments were performed. In one, INS (1 µM) and the IR were kept constant and the concentration of CAP increased from 0.1 µM to 100 µM. In the other, the CAP (25 µM) and IR were kept constant and the concentration of INS increased from 10 nM to 10 µM. In neither experiment was any significant change in the INS binding curve observed.
CAP did bind to the ESR1 with what appears to be a high affinity (Kd = 0.9 µM) and a lower affinity (Kd = 10 µM) site. […] Other vanilloid compounds also bound to the ESR1 but with lower affinity than CAP (Figure 6). None bound to the IR.

[3] = system: Human HepG2 cells; set-up: method as in PMID 25621172; conditions: cited from earlier work
[4] = system: insulin receptor (IR); experiment: Effect on INS binding to its receptor by ultraviolet spectroscopy; conditions: INS 1 µM with CAP 0.1-100 µM, or CAP 25 µM with INS 10 nM-10 µM
Experimental: as §1

[5] = system: Human (male); set-up: method as in PMID 8926537; conditions: cited from earlier work
[6] = target: T1, Estrogen receptor alpha (ER alpha) recombinant protein (ESR1) (Homo sapiens, UniProt P03372); experiment: Binding to the estrogen receptor by ultraviolet spectroscopy
T1 sequence (P03372 1-595): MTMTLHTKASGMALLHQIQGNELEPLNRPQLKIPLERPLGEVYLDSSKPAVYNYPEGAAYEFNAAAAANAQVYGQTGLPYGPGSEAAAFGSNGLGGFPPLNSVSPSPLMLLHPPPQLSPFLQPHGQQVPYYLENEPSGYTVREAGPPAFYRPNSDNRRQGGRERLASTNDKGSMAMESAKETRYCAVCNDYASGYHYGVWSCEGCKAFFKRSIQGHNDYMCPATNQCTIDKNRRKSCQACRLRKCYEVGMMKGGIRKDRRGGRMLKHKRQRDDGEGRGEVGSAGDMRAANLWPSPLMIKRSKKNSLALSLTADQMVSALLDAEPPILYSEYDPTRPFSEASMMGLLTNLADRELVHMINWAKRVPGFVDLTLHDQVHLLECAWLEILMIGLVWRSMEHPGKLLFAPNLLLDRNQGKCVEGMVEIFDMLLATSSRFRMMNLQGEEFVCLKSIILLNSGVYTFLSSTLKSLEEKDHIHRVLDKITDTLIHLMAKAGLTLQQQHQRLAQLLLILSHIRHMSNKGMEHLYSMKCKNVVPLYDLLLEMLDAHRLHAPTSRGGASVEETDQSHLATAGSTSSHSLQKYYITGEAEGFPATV

insulin receptor (IR) (Homo sapiens, UniProt P06213), sequence (P06213 28-1382, species assumed): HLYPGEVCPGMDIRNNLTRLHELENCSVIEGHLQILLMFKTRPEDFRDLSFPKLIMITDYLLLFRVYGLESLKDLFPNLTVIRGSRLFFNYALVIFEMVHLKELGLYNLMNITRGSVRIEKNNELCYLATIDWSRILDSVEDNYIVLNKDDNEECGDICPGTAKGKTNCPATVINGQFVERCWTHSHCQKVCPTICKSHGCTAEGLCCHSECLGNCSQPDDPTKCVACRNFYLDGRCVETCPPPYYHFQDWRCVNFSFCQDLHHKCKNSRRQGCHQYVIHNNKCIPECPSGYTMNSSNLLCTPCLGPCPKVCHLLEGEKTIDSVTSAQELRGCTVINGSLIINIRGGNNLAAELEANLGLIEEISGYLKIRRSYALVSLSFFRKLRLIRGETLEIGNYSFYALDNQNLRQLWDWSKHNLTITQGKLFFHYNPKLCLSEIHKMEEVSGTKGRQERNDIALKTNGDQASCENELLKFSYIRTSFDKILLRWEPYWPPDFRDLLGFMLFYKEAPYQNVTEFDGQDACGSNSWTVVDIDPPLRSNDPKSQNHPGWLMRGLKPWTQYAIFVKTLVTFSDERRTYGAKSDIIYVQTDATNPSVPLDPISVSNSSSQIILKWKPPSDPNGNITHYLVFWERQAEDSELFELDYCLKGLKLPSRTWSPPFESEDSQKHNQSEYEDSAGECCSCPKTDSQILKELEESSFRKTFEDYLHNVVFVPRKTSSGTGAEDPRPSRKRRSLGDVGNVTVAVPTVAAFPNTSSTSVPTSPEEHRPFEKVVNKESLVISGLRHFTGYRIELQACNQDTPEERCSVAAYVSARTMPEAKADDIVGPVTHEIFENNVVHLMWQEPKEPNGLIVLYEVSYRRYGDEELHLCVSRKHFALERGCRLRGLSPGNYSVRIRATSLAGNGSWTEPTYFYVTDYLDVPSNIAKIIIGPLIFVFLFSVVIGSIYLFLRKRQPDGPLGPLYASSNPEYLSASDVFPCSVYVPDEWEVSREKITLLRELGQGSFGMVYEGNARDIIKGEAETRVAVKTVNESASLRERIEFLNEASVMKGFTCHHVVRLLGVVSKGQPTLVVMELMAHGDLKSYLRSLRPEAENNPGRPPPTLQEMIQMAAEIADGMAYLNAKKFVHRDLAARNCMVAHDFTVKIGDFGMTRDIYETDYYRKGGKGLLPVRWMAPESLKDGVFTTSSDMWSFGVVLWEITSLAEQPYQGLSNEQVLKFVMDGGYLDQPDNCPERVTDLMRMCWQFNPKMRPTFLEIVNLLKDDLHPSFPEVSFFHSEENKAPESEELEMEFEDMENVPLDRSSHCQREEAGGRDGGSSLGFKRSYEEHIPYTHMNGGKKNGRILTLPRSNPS

- binding to the insulin receptor (in words) ([2]; listed as capsaicin): not the insulin receptor
- effect on INS binding to its receptor [4]: no observable effect
- Kd [6]: 0.9 µM
- binding to the estrogen receptor (in words) ([6]; UV spectroscopy): bound to the estrogen receptor
- binding to the estrogen receptor (in words) ([6]; UV spectroscopy, listed as CAP): bind directly to the estrogen receptor
- Kd ([6]; read-out: Kd, ESR1 lower affinity site, UV spectroscopy): 10 µM
Structure (SMILES): COc1cc(CNC(=O)CCCC/C=C/C(C)C)ccc1O [Capsaicin, trans-8-methyl-N-vanillyl-6-nonenamide]
- Upregulates [1]: >Increases membrane fluidity
- binding to the insulin receptor (in words) ([2]; listed as CAP): did not bind significantly to the IR except at concentrations well beyond those physiologically possible
- Cancer-Related Effects [3]: >Sensitizes human cancer cells to cytocidal effects of chemotherapeutic agents >Selectivity to kill cancer cells with minimal damage to normal cells
- Downregulates or Inhibits [3]: >MDR-1 pathway → downregulates MDR-1 transcription (improves sensitivity)
- effect on INS binding to its receptor ([4]; listed as CAP): does not, apparently, alter INS binding to its receptor; also recorded: did not significantly affect INS binding to its receptor
- Capsaicin Upregulates [5]: >Fat metabolism through neuroadrenergic effects of TRPV-1 activation
